Source: patent US20230257715A1, “COMPOSITIONS AND METHODS FOR REGULATING ENTEROENDOCRINE CELL DIFFERENTIATION AND USES THEREOF” (The Children's Medical Center Corporation, priority 2020, published 2023)

Legend:
[1] = test system: human duodenal enteroids; test: qPCR analysis of enteroendocrine and lineage markers in enteroids; format: cell-based; conditions: for EE cell marker expression on inclusion in DM: compared with GM and DM without betacellulin or PF, qPCR
Description: For differentiation, enteroids were passaged and grown in GM for two days, to allow for ISC expansion, after which the organoids were transitioned to tissue-specific differentiation media (DM) with additional small molecules added as described (TABLE 1A and TABLE 1B). Media was changed every two days, with Tubastatin A being removed after the second day of differentiation. Enteroids and rectoids were taken for analysis after 14 days.
Total RNA was purified from individual wells using TRI®Reagent (Sigma) and the Direct-zol™ RNA kit (Zymo Research), following the manufacturer's protocol. RNA concentration was determined using a NanoDrop™ 1000 spectrophotometer (Life Technologies). RNA was treated with DNAse (Promega) and reverse transcribed using the High-Capacity cDNA Reverse Transcription Kit (Life Technologies). Gene expression analysis was then performed by Real Time quantitative PCR (qPCR) using a QuantStudio 6 Flex thermocycler (Life Technologies). Taqman primers from Life Technologies (TABLE 3) were used. 18S transcripts were used as the internal control and data were expressed using the 2^−ddCt method with Ct limit of 40. Fold change, unless otherwise stated, was compared to total RNA derived from adult whole mucosal tissue biopsies.

[2] = literature (Sathyapalan et al. 2010); cited from earlier work
[3] = test system: GATA4-NKX2-5; conditions: in vitro, literature (Valimaki et al. 2017); cited from earlier work

Molecule	EE cell marker expression on inclusion in DM [1]	EE lineage marker mRNA expression when added to DM (qPCR) ([1]; compared to enteroids grown in G2D12, FIG. 2.1A)	human serum GIP levels [2]	GATA4-NKX2-5 transcriptional activity [3]
Nc1ccc(-c2cnc(N)c(-c3ccc(Cl)cc3)c2)cn1 [PF, PF06260933]	increased expression of EE cell markers			
Cc1c(C(=O)NN2CCCCC2)nn(-c2ccc(Cl)cc2Cl)c1-c1ccc(Cl)cc1 [Rim, rimonabant]		induced expression of multiple EE lineage markers (CHGA, NEUROD1, NEUROG3, SST, and GIP) when added to DM, with Rim having a much larger effect	increase human serum GIP levels	increase the activity of GATA4-NKX2-5 transcriptional activity in vitro
betacellulin (protein, UniProt P35070 32-111, looked up, Betacellulin, a ligand of both EGFR and the ErbB4 receptor) Betacellulin: DGNSTRSPETNGLLCGDPEENCAATTTQSKRKGHFSRCPKQYKHYCIKGRCRFVVAEQTPSCVCDEGYIGARCERVDLFY	increased expression of EE cell markers			
